Results published in patent publication US11702404B2, “GLP-1R modulating compounds” (priority 2019, dated 2023).

Experiments:
[1] = target: GLP-1R (Homo sapiens, UniProt P43220); test: GLP-1R activation: cAMP increase in CHO cells stably expressing GLP-1R; format: cell-based; conditions: cAMP increase, CHO cells stably expressing GLP-1R, 10 point dose response, 30 minutes incubation; read-out: EC50
[2] = Microsomal stability, human liver microsomes (predicted hepatic clearance); conditions: predicted from in vitro microsomal stability data

Sequence of GLP-1R (P43220 24-463): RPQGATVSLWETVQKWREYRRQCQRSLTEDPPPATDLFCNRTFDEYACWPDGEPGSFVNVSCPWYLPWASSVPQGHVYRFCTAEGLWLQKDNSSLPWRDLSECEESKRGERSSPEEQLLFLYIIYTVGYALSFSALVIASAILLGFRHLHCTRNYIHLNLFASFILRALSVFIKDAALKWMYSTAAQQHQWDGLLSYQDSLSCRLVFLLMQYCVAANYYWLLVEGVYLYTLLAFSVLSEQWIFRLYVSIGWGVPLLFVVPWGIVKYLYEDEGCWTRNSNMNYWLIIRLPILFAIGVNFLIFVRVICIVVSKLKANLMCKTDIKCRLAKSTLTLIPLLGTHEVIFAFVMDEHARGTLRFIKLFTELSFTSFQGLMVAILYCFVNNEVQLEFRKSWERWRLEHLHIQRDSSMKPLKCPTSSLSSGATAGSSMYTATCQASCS

| EC50 [1] [nM] | Predicted Hepatic Clearance (Pred. Cl.) [2] [mL/min/kg] | SMILES |
| --- | --- | --- |
| 2.12 | 5 | N#Cc1ccc(COc2cccc(-c3cc(F)c(Cc4nc5ccc(C(=O)O)nc5n4CC4(CF)CC4)cc3F)n2)c(F)c1 [Example 440, 2-(4-(6-((4-cyano-2-fluorobenzyl)oxy)pyridin-2-yl)-2,5-difluorobenzyl)-3-((1-(fluoromethyl)cyclopropyl)methyl)-3H-imidazo[4,5-b]pyridine-5-carboxylic acid] |
| 0.25 | 4.13 | N#Cc1ccc(COc2cccc(-c3cc(F)c(Cc4nc5ccc(C(=O)O)cc5n4C[C@@H]4CCO4)cc3F)n2)c(F)c1 [Example 444, (S)-2-(4-(6-((4-cyano-2-fluorobenzyl)oxy)pyridin-2-yl)-2,5-difluorobenzyl)-1-(oxetan-2-ylmethyl)-1H-benzo[d]imidazole-6-carboxylic acid] |
| 1.23 | <1.83 | N#Cc1ccc(COc2cccc(-c3cc(F)c(Cc4nc5c(F)cc(C(=O)O)cc5n4CC4(CF)CC4)cc3F)n2)c(F)c1 [Example 448, 2-(4-(6-((4-cyano-2-fluorobenzyl)oxy)pyridin-2-yl)-2,5-difluorobenzyl)-4-fluoro-1-((1-(fluoromethyl)cyclopropyl)methyl)-1H-benzo[d]imidazole-6-carboxylic] |

The remaining lines, values behind:

| SMILES | EC50 [1] [nM] | Predicted Hepatic Clearance (Pred. Cl.) [2] [mL/min/kg] |
| --- | --- | --- |
| N#CCC1(Cn2c(Cc3cc(F)c(-c4ccnc(OCc5ccc(C#N)cc5F)n4)cc3F)nc3ccc(C(=O)O)cc32)CC1 [Example 441, 2-(4-(2-((4-cyano-2-fluorobenzyl)oxy)pyrimidin-4-yl)-2,5-difluorobenzyl)-1-((1-(cyanomethyl)cyclopropyl)methyl)-1H-benzo[d]imidazole-6-carboxylic acid] | 0.21 | 3 |
| N#CCC1(Cn2c(Cc3cc(F)c(-c4ccnc(OCc5ccc(Cl)cc5F)n4)cc3F)nc3ccc(C(=O)O)cc32)CC1 [Example 442, 2-(4-(2-((4-chloro-2-fluorobenzyl)oxy)pyrimidin-4-yl)-2,5-difluorobenzyl)-1-((1-(cyanomethyl)cyclopropyl)methyl)-1H-benzo[d]imidazole-6-carboxylic acid] | 0.14 | 3.67 |
| COc1cc(Cl)ccc1COc1cccc(-c2cc(F)c(Cc3nc4ccc(C(=O)O)cc4n3CC3(CC#N)CC3)cc2F)n1 [Example 443, 2-(4-(6-((4-chloro-2-methoxybenzyl)oxy)pyridin-2-yl)-2,5-difluorobenzyl)-1-((1-(cyanomethyl)cyclopropyl)methyl)-1H-benzo[d]imidazole-6-carboxylic acid] | 0.15 | 11 |
| COc1cc(Cl)ccc1COc1cccc(-c2cc(F)c(Cc3nc4ccc(C(=O)O)cc4n3CC3(CF)CC3)cc2F)n1 [Example 445, 2-(4-(6-((4-chloro-2-methoxybenzyl)oxy)pyridin-2-yl)-2,5-difluorobenzyl)-1-((1-(fluoromethyl)cyclopropyl)methyl)-1H-benzo[d]imidazole-6-carboxylic acid] | 0.5 | 9.67 |
| N#Cc1ccc(COc2nc(-c3cc(F)c(Cc4nc5ccc(C(=O)O)cc5n4C[C@@H]4CCO4)cc3F)ncc2F)c(F)c1 [Example 449, (S)-2-(4-(4-((4-cyano-2-fluorobenzyl)oxy)-5-fluoropyrimidin-2-yl)-2,5-difluorobenzyl)-1-(oxetan-2-ylmethyl)-1H-benzo[d]imidazole-6-carboxylic acid] | 0.17 | 4.33 |
| N#Cc1ccc(COc2nc(-c3cc(F)c(Cc4nc5ccc(C(=O)O)cc5n4C[C@@H]4CCO4)cc3F)ccc2F)c(F)c1 [Example 450, (S)-2-(4-(6-((4-cyano-2-fluorobenzyl)oxy)-5-fluoropyridin-2-yl)-2,5-difluorobenzyl)-1-(oxetan-2-ylmethyl)-1H-benzo[d]imidazole-6-carboxylic acid] | 0.77 | <1.83 |
